We go through three molecules from the kinase profiling compilation of Christmann-Franck et al. (2016).

Targets include CAMKK2 (human) (UniProt Q96RR4); CDC42BPG (human) (UniProt Q6DT37); DCLK1 (human) (UniProt O15075); DCLK2 (human) (UniProt Q8N568); GAK (human) (UniProt O14976); LIMK2 (human) (UniProt P53671); MAPK7 (human) (UniProt Q13164); MYLK (human) (UniProt Q15746); PLK1 (human) (UniProt P53350); PLK3 (human) (UniProt Q9H4B4); ROS1 (human) (UniProt P08922); SLK (human) (UniProt Q9H2G2); STK33 (human) (UniProt Q9BYT3); TNK1 (human) (UniProt Q13470); TTK (human) (UniProt P33981); IGF1R (human) (UniProt P08069); LATS1 (human) (UniProt O95835); MAP2K3 (human) (UniProt P46734); MYO3B (human) (UniProt Q8WXR4); PAK1 (human) (UniProt Q13153); AAK1 (human) (UniProt Q2M2I8); ACVR1 (human) (UniProt Q04771); ADCK4 (human) (UniProt Q96D53); AURKA (human) (UniProt O14965); AURKB (human) (UniProt Q96GD4); AURKC (human) (UniProt Q9UQB9); BMP2K (human) (UniProt Q9NSY1); CDK7 (human) (UniProt P50613); CSNK1D (human) (UniProt P48730); CSNK1E (human) (UniProt P49674); CSNK1G3 (human) (UniProt Q9Y6M4); FYN (human) (UniProt P06241); IRAK3 (human) (UniProt Q9Y616); LATS2 (human) (UniProt Q9NRM7); LCK (human) (UniProt P06239); MAP4K2 (human) (UniProt Q12851); MAP4K4 (human) (UniProt O95819); MELK (human) (UniProt Q14680); MERTK (human) (UniProt Q12866); MINK1 (human) (UniProt Q8N4C8); MYLK2 (human) (UniProt Q9H1R3); MYLK3 (human) (UniProt Q32MK0); MYLK4 (human) (UniProt Q86YV6); NEK2 (human) (UniProt P51955); NEK5 (human) (UniProt Q6P3R8); NEK9 (human) (UniProt Q8TD19); NLK (human) (UniProt Q9UBE8); PIK3CG (human) (UniProt P48736); PIP4K2B (human) (UniProt P78356); PIP5K1A (human) (UniProt Q99755); PLK4 (human) (UniProt O00444); RIOK1 (human) (UniProt Q9BRS2); RIOK2 (human) (UniProt Q9BVS4); RIOK3 (human) (UniProt O14730); RPS6KA1 KD1 (human) (UniProt Q15418); SGK110 (human) (UniProt P0C264); SRPK3 (human) (UniProt Q9UPE1); STK16 (human) (UniProt O75716); STK17A (human) (UniProt Q9UEE5); TNIK (human) (UniProt Q9UKE5); TXK (human) (UniProt P42681).

Assay in all cases: KINOMEscan competition binding
Holding throughout (conditions): compound 10.0 µM

In assay [1] the target is JAK2 JH1 catalytic (human) (UniProt O60674).
Assay [2] addresses TYK2 JH1 catalytic (human) (UniProt P29597).
Assay [3] addresses TYK2 JH2 pseudokinase (human) (UniProt P29597).

Sequence of PLK3 (human) (Q9H4B4 whole entry, looked up): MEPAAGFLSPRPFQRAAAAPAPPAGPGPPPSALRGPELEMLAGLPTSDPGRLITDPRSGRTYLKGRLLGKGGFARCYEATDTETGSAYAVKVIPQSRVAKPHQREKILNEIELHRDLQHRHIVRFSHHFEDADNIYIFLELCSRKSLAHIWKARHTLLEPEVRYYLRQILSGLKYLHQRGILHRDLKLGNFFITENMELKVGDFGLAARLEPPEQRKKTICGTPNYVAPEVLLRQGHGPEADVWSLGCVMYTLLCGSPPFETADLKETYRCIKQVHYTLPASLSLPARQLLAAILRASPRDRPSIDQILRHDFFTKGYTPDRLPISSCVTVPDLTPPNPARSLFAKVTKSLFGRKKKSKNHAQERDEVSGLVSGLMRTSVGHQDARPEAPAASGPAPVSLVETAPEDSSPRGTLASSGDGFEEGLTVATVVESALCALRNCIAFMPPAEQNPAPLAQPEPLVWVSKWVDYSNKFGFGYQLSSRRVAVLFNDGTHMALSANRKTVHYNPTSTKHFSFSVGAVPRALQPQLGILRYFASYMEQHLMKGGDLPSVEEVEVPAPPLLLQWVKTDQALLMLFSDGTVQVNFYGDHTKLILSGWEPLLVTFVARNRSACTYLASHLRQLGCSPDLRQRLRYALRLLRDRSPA
Sequence of TNK1 (human) (Q13470 whole entry, looked up): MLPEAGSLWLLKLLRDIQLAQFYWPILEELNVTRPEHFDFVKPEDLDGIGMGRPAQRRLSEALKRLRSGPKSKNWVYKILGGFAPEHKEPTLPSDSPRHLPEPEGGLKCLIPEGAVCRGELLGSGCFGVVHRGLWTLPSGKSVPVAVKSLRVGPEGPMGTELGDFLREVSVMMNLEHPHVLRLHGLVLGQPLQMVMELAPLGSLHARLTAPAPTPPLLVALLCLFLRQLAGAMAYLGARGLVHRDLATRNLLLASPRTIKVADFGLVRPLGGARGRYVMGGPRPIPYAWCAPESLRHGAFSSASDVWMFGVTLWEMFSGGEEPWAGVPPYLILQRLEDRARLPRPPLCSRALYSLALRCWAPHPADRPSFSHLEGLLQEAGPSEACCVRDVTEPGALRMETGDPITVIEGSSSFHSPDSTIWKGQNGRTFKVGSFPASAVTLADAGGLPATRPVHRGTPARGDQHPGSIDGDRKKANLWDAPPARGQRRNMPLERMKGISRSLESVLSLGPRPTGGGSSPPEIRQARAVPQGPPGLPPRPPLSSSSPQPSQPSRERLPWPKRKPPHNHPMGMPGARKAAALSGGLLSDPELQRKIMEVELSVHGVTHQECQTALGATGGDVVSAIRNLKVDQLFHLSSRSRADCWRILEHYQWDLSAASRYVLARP
Sequence of TTK (human) (P33981 whole entry, looked up): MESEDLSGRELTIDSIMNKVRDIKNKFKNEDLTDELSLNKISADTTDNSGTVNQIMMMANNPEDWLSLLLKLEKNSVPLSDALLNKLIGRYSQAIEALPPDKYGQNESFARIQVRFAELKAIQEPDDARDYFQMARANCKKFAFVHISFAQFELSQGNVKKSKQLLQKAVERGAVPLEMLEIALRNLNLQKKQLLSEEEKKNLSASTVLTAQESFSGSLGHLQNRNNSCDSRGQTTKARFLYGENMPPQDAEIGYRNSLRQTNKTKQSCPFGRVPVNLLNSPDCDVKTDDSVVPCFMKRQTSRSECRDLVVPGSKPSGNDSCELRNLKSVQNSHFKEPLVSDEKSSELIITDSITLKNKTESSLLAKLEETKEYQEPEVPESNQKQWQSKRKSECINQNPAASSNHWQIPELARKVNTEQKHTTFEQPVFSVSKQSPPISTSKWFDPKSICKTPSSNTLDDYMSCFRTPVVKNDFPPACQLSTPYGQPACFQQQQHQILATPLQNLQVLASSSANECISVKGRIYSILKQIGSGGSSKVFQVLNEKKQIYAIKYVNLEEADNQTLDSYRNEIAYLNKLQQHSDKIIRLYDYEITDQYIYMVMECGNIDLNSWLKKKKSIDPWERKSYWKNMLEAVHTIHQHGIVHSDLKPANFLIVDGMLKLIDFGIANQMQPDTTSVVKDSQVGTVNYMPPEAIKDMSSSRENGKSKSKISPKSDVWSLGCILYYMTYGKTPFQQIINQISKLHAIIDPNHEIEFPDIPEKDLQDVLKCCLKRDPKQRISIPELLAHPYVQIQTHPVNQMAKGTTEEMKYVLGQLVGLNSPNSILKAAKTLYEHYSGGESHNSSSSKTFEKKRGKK
Sequence of DCLK1 (human) (O15075 whole entry, looked up): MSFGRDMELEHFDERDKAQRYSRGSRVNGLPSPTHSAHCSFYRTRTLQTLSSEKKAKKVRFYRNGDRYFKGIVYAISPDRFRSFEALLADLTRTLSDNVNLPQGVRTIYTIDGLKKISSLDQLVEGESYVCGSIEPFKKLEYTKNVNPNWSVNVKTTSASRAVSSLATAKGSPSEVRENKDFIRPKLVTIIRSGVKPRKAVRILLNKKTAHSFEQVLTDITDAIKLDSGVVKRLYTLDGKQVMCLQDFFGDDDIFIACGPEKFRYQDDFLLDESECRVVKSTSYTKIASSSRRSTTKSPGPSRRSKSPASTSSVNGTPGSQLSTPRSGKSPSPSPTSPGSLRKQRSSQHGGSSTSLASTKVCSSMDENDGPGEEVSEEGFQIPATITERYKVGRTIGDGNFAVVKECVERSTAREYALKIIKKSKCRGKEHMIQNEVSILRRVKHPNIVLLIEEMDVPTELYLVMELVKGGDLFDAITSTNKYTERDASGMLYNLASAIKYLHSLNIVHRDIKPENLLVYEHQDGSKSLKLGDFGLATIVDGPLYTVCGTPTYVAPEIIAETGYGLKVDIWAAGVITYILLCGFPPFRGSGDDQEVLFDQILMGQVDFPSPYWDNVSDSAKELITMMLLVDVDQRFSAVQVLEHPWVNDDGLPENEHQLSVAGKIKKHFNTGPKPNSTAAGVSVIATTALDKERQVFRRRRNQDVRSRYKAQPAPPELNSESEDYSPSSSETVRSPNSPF
Sequence of GAK (human) (O14976 whole entry, looked up): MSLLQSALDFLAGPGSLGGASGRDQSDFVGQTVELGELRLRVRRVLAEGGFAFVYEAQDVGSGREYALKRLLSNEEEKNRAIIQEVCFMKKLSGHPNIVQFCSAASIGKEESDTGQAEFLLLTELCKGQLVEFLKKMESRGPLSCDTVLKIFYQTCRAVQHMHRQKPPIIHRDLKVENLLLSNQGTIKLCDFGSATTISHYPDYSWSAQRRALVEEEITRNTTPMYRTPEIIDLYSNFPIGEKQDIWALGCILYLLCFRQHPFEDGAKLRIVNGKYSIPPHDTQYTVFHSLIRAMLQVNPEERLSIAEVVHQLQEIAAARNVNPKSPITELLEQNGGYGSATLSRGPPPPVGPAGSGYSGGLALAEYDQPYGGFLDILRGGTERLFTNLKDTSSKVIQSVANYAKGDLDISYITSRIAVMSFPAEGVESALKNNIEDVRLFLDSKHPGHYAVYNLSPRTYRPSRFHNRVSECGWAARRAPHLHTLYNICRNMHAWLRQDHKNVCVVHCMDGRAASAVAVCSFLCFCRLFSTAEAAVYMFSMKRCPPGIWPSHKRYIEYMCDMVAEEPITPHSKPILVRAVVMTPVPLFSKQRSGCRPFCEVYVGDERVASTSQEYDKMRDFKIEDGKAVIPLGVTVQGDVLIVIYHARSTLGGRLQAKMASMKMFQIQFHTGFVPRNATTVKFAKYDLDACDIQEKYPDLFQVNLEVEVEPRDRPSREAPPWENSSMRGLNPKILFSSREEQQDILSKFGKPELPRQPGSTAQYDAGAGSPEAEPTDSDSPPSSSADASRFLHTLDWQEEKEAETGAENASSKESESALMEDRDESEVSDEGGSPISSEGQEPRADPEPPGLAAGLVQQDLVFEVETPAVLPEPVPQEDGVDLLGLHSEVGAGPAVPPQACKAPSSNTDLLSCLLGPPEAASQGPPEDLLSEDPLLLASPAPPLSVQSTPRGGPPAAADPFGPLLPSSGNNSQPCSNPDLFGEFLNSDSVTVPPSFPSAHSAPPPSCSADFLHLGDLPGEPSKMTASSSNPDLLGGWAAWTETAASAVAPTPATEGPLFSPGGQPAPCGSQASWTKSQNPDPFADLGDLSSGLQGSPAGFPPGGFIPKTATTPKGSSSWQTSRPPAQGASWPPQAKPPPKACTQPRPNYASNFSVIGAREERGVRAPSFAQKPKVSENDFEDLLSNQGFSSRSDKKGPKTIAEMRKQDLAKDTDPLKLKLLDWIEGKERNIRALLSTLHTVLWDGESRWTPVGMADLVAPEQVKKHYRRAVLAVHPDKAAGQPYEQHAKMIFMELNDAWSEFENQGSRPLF
Sequence of MAPK7 (human) (Q13164 whole entry, looked up): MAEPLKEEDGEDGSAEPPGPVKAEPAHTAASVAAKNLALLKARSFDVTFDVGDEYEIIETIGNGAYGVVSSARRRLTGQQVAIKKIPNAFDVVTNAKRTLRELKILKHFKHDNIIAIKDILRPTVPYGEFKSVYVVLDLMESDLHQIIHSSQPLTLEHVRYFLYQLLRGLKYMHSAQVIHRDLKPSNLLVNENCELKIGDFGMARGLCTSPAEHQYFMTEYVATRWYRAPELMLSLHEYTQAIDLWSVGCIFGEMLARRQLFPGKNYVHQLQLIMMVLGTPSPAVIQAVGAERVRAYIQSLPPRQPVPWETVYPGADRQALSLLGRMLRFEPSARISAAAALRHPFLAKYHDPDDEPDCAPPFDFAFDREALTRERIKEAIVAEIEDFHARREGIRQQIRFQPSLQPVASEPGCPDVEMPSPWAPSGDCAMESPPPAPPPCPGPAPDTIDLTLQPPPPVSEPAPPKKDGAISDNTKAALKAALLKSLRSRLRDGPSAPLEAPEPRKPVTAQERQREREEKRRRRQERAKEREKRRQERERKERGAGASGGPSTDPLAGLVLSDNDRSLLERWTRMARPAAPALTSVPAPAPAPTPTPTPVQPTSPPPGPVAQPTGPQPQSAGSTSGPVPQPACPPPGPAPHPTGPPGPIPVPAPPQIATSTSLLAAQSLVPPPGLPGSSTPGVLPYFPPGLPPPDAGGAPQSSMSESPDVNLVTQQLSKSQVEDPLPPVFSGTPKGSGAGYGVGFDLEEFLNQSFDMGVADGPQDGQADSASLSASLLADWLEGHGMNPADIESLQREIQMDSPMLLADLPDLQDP

Consider `COc1cc(C(=O)NC2CCN(C)CC2)ccc1Nc1ncc2c(n1)N(C1CCCC1)[C@@H]1CCC[C@@H]1C(=O)N2C`, for which the kinase still bound, per cent of control at CAMKK2 (human) worked out at 22%; at CDC42BPG (human), 12%; at DCLK1 (human), 2.4%; at DCLK2 (human), 2.8%; on GAK (human) it was 13%; on LIMK2 (human), 8.3%. For the same molecule, the kinase still bound, per cent of control turned out to be 0.6% at MAPK7 (human); 2.6% on MYLK (human); 15% on PLK1 (human); 0% at PLK3 (human); 31% at ROS1 (human); 5.8% on SLK (human). The kinase still bound, per cent of control on STK33 (human) is 11%; at TNK1 (human), 21%; at TTK (human), 28%.

With `O=C1NC(=O)C(=Cc2ccc(-c3ccc([N+](=O)[O-])cc3)o2)C(=O)N1`, the kinase still bound, per cent of control on IGF1R (human) amounted to 34%; at LATS1 (human), 0%; at MAP2K3 (human), 15%; at MYO3B (human), 28%; on PAK1 (human) it was 17%.

Turning to `CN1C(=O)[C@H]2CCC[C@H]2N(C2CCCC2)c2nc(Nc3ccc4ncccc4c3)ncc21`, the kinase still bound, per cent of control came out at 12% on AAK1 (human); 16% at ACVR1 (human); 10% on ADCK4 (human); 11% on AURKA (human); 21% at AURKB (human); 4.6% at AURKC (human). In addition, the kinase still bound, per cent of control on BMP2K (human) stood at 2.1%; at CDK7 (human) it was 30%; on CSNK1D (human), 4.3%; on CSNK1E (human), 0.15%; on CSNK1G3 (human), 20%; on DCLK1 (human), 12%. In addition, the kinase still bound, per cent of control on FYN (human) came out at 34%; at GAK (human) it was 1.8%; at IRAK3 (human), 16%; in assay [1] it was 15%; at LATS2 (human), 14%; on LCK (human), 19%. The kinase still bound, per cent of control was found to be 23% at MAP4K2 (human); 0.8% on MAP4K4 (human); 0.25% at MAPK7 (human); 26% on MELK (human); 28% at MERTK (human); 1.6% at MINK1 (human). The kinase still bound, per cent of control at MYLK2 (human) stood at 8.3%; on MYLK3 (human) it was 7.6%; on MYLK4 (human) it was 33%; on NEK2 (human) it was 31%; at NEK5 (human), 11%; at NEK9 (human), 30%. Further, the kinase still bound, per cent of control is 12% at NLK (human); 34% at PIK3CG (human); 13% on PIP4K2B (human); 19% on PIP5K1A (human); 0.25% at PLK1 (human); 10% at PLK3 (human). The kinase still bound, per cent of control worked out at 1.9% at PLK4 (human); 7.2% at RIOK1 (human); 0.35% on RIOK2 (human); 7.6% on RIOK3 (human); 27% at RPS6KA1 KD1 (human); 30% on SGK110 (human). Besides, the kinase still bound, per cent of control at SLK (human) was found to be 18%; at SRPK3 (human) it was 20%; at STK16 (human), 2.2%; on STK17A (human), 3.3%; at TNIK (human), 14%; at TNK1 (human), 1.6%. The kinase still bound, per cent of control at TTK (human) turned out to be 26%; on TXK (human) it was 34%; in [2], 25%; in assay [3] it was 31%.
